The values below come from patent EP0884321A1, “Ascorbic acid 2-phosphate zinc salt and process for manufacturing the same” (priority 1997, dated 1998).

A short description of data set [1]: Stability in buffer solution on storage (HPLC). Format: physicochemical. The settings on record: about 0.1%, stored at 50°C for 476 hours; for Stability (100% = concentration before storage) pH: 8: 50 mM Tris-HCl; for Stability (100% = concentration before storage) pH: 5: 50 mM acetic acid-NaOH. The protocol: In the Examples and Test Examples, the analysis of an L-ascorbic acid 2-phosphate salt or an ion thereof was performed using an Ap-containing solution having a known concentration (prepared from L-ascorbic acid 2-phosphate magnesium salt) as a standard by an HPLC method using a Shodex IEC DEAE-825 resin (ammonium acetate 10 mM → 1M gradient, detected spectrophotometrically at 265 nm). The elemental analysis was performed by an ICP emission method, flame photometry and an ion chromatography method. Unless otherwise indicated, the reagents used herein were commercially available reagents.
The stability of L-ascorbic acid 2-phosphate zinc salt was compared to that of L-ascorbic acid 2-phosphate magnesium salt. Each salt was dissolved in a buffer solution (50 mM acetic acid-NaOH, pH: 5, or 50 mM Tris-HCl, pH: 8) to a concentration of about 0.1% and stored at 50°C for 476 hours. The concentrations of the L-ascorbic acid 2-phosphate before and after storage were analyzed by the HPLC method.

Data set [2] has as its system B. subtilis (168 strain). Kind of data set: Antimicrobial effect, turbidity in NUTRIENT BROTH. Format: cell-based. The settings on record: 0.1% salt, pH 6.8, about 10^7 cells/ml, 37°C for 24 hours. As to the method:
(§1) To NUTRIENT BROTH (produced by DIFCO), 0.1% of an L-ascorbic acid 2-phosphate salt was added thereto, and the pH was adjusted to 6.8 using hydrochloric acid or sodium hydroxide. Using 5 ml of the medium thus prepared, test bacterium were inoculated in a concentration of about 10^7 cells/ml and incubated in a test tube at 37°C for 24 hours. […] As a control, the same test was performed using a medium not containing an L-ascorbic acid 2-phosphate salt.

Data set [3] relates to E. coli (K-12 strain). Description: Antimicrobial effect, turbidity in NUTRIENT BROTH. Format: cell-based. The settings on record: 0.1% salt, pH 6.8, about 10^7 cells/ml, 37°C for 24 hours. As to the method: as §1
Data set [4] in a line: Solubility in water.
The conditions of data set [5]: cited from earlier work.
[6] abbreviates: background statement on known salts.

SMILES strings stand for the structures. Structures can show the parent of a compound that is named as a salt. Where two headings read alike, the source gives them in different places. Bounds are passed on as bounds.

The solubility is how much of the substance goes into solution per volume. Take `O=C1O[C@H]([C@@H](O)CO)C(O)=C1OP(=O)([O-])[O-].[Zn+2]` [L-ascorbic acid 2-phosphate zinc salt]: the remaining at 476 h in data set [1] (50 mm acetic acid-naoh, pH 5, 50 mM acetic acid-NaOH, pH: 5, read-out: Stability (100% = concentration before storage) pH: 5) came out at 91%; in data set [1] (50 mm tris-hcl, pH 8, 50 mM Tris-HCl, pH: 8, read-out: Stability (100% = concentration before storage) pH: 8), 93%. In data set [2], the “turbidity after incubation, B. subtilis (168 strain)” value (from here on “turbidity … (168 strain)”) was “-”. Also, in data set [3], the “turbidity after incubation, E. coli (K-12 strain)” value (“turbidity … (K-12 strain)” for short) was “-”. The compound further returned a solubility in data set [4] of at least 500 mg/mL.
For `O=C1O[C@H]([C@@H](O)CO)C(O)=C1OP(=O)([O-])[O-].[Na+].[Na+]`, the “turbidity … (168 strain)” value in data set [2] is reported as “+”. Besides, the “turbidity … (K-12 strain)” value in data set [3] is “+”. In data set [5], the “concentration of aqueous solution that can be formed (solubility in water)” value (from here on “concentration … (solubility in water)”) is on record as “about 30%”.
As to `O=C1O[C@H]([C@@H](O)CO)C(O)=C1OP(=O)(O)O` [calcium salt], in data set [5] (setting [6]), the “concentration … (solubility in water)” value is given as “scarcely dissolves in water”.
Regarding `O=C1O[C@H]([C@@H](O)CO)C(O)=C1OP(=O)([O-])[O-].[Mg+2]` [L-ascorbic acid 2-phosphate magnesium salt], the “Stability (100% = concentration before storage) pH: 8” value in data set [1] (pH: 8) came out at 95%. Besides, the “Stability (100% = concentration before storage) pH: 5” value in data set [1] (pH: 5) turned out to be 82%. Further, in data set [2], the “turbidity … (168 strain)” value is “+”. Moreover, the “turbidity … (K-12 strain)” value in data set [3] was “+”. In data set [5] (setting [6]), the “concentration … (solubility in water)” value was below 30%.
Regarding `O=C1O[C@H]([C@@H](O)CO)C(O)=C1OP(=O)([O-])[O-].[Zn+2]` [L-ascorbic acid 2-phosphate zinc salt (Example 2)], the “Stability (100% = concentration before storage) pH: 8” value in data set [1] (pH: 8, 28560 min) is listed as 95%. Besides, the “Stability (100% = concentration before storage) pH: 5” value in data set [1] (pH: 5, 28560 min) is 92%.
